{"source": "patent US20040255344A1", "about": "“Rodent with urinary disturbance and method of constructing the same, and method of screening remedy for urinary disturbance using the rodent” (priority 2001, published 2004)", "test_system": "urinary dysfunction model rat", "test": "screening test in urinary dysfunction model rat (superior colliculus lesion), cystometrography", "type": "in vivo", "conditions": "0.3 mg/kg iv, 5 minutes after intravenous administration, FIG. 9", "from_the_text": "FIG. 3 indicates a schematic diagram of a system to measure the status of accelerated urinary reflex used in the present invention.\nHere, a cystometrogram is made when detecting the urinary reflex by putting a catheter (not indicated in the diagram) in the bladder, and continuously measuring the changes of internal bladder pressure through the said catheter.\nFurther, the volume of the bladder can be calculated from the results of this cystometrogram as follows. Specifically, when infusing physiological saline into the bladder at a constant rate, the volume of the bladder can be calculated by multiplying the time required to reach the threshold where the urinary reflex starts by the fixed rate.\nAn urinary dysfunction model rat was produced by the following method. […]\nAfter the operation was complete and the animals had awakened from the anesthesia, the post-operative rat was measured using cystometrography based on the system indicated in FIG. 3, and the status of accelerated urinary reflex was confirmed.\nUsing a control rat and the rat produced under adequate conditions based on the present invention, the presence of a therapeutic effect was assessed after intravenously administering oxybutynin hydrochloride (0.3 mg/kg iv:iv means intravenous injection, and iv means the same in FIG. 9.), which is a candidate compound as a therapeutic agent for urinary dysfunction. […]", "note": "Where a name gives a salt, the structure may show the parent alone.", "data": [{"smiles": "CCN(CC)CC#CCOC(=O)C(O)(c1ccccc1)C1CCCCC1", "note": "(centres unmarked) [oxybutynin hydrochloride]", "values": [{"measurement": "bladder volume", "value": "increased"}, {"measurement": "level of the urinary dysfunction", "value": "improved"}]}]}
